The values below come from US6750244B2, “Compounds active at a novel site on receptor-operated calcium channels useful for treatment of neurological disorders and diseases” (NPS Pharmaceuticals, Inc., priority 1993, dated 2004).

As a reminder, the ED50 is the midpoint of the dose-response relation. Higher therefore signals weaker potency. The term IC50 denotes the concentration that gives 50% inhibition. What is called LD50 is the dose at which mortality reaches 50%. Read a low LD50 as a more toxic substance.

Molecules are shown by their SMILES. Read-outs that look alike come from different tables or passages of the source.

Series [1] deals with motor performance. The series is described as follows: Acute motor impairment (rotorod) in mice. The note with it: Frings mice, i.p. The method, then:
(§1) In this assay, Frings and CF1 mice were injected with test compound and placed on a knurled rod which rotated at a speed of 6 rpm. The ability of the mice to maintain equilibrium for long periods of time was determined; those mice that were unable to maintain equilibrium on the rotorod for 1 min in each of 3 trials were considered impaired.

The next series relates to sound-induced seizures. The series is described as follows: Sound-induced seizures in Frings mice (reflex epilepsy). In kind it is in vivo. The note with it: Mus musculus, Frings mice.
Series [2] addresses NMDA receptor-ionophore complex (site labeled by [3H]MK-801). The series is described as follows: Inhibition of [3H]MK-801 binding in rat cortical/hippocampal washed membrane preparations. The note with it: read-out: IC50 (μM) vs. [3H]MK-801; rat cortical/hippocampal washed membranes.
The test system of series [3] is mean arterial blood pressure. The note with it: i.v.
Series [4] can be described thus: Lethality (LD50) after oral administration in Frings mice. The note with it: mouse, in vivo.
A further series concerns NMDA receptor. Briefly: Inhibition of NMDA/glycine-induced increases in intracellular calcium in cultured rat cerebellar granule cells (RCGC). It counts as cell-based. The note with it: NMDA/glycine-induced increases in intracellular calcium, cultured rat cerebellar granule cells; read-out: IC50 (μM) vs. NMDA. For orientation: A change in cytosolic calcium serves as a functional read-out for many receptors and channels.

Another series concerns focal ischemic stroke. The series is described as follows: Rat model of focal ischemic stroke (vessel occlusion). In kind it is in vivo, rats. The note with it: i.p. 2 mg/kg 30 min prior to vessel occlusion and 2 mg/kg 3 hr post-occlusion.
Another series concerns the target T1, serotonin uptake site (Rattus norvegicus, UniProt P31652).
T1 construct: from tissue; host or cells: rat forebrain membranes (per the assay title)
The series is described as follows: Serotonin uptake binding assay: [3H]citalopram binding to rat forebrain membranes.

In series [5] the test system is motor performance. Briefly: Motor toxicity (TD50) in rats. The note with it: rats, oral, 25 mg/kg.
The test system of series [6] is thermal nociception. In kind it is in vivo, rats. The settings on record: 25 mg/kg i.p. The protocol:
In this standard assay, the thermal nociceptive stimulus was 52° C. warm water with the latency to tail flick or withdrawal taken as the endpoint.

The nature of the next series: in vivo. The note with it: Frings, mouse, in vivo, ip. The protocol: as §1
The subject of a further series is T2, L-type calcium channel.
T2 construct: L-type calcium channel: estimated IC50, KCl depolarization-induced increases in intracellular calcium; other: cultured
Briefly: Inhibition of KCl depolarization-induced increases in intracellular calcium in cultured rat cerebellar granule cells. It counts as cell-based. The settings on record: cultured rat cerebellar granule cells; read-out: L-type calcium channel: estimated IC50, KCl depolarization-induced increases in intracellular calcium. The text has this:
The ability of arylalkylamines to inhibit dihydropyridine-sensitive Ca^2+ channels was examined in cerebellar granule cells and a rat aortic smooth muscle cell line, A7r5 cells.

Series [7] relates to behavior. The series is described as follows: Behavioral effects in conscious male NMRI mice.
For series [8], the system named is central muscarinic cholinergic receptor. It counts as binding, rat.
The subject of a further series is chronic neuropathic pain. The series is described as follows: Rat model of chronic neuropathic pain. It counts as in vivo, rats.
Series [9] concerns maximal electroshock-induced seizures. Briefly: Maximal electroshock-induced seizures in rats. It counts as in vivo. The settings on record: rats, oral, 25 mg/kg. Background: In the maximal electroshock model the usual endpoint is tonic extension of the hind limbs.
A further series addresses T3, dopamine uptake site (Cavia porcellus, UniProt H0WCX4).
T3 construct: from tissue; host or cells: guinea pig striatal membranes (per the assay title)
Briefly: Dopamine uptake binding assay: [3H]WIN-35,428 binding to guinea pig striatal membranes.

Series [10] has as its system thermal nociception. It counts as in vivo, rats. The settings on record: 25 mg/kg i.p. The protocol: In these experiments, a 52° C. hot plate was used as the nociceptive stimulus.
This is another data set of the same source.

Series [11] deals with delayed rectifier potassium channel. Briefly: Inhibition of delayed rectifier potassium channel in cultured N1E-115 neuroblastoma cells. The note with it: read-out: Delayed rectifier potassium channel: estimated IC50. It counts as cell-based.
The subject of series [12] is mean arterial pressure, heart rate, ECG. The series is described as follows: Cardiovascular activity in conscious beagle dogs.
Series [13] relates to behavior. Briefly: Behavioral effects in conscious beagle dogs.
The target of series [14] is T4, norepinephrine uptake site (Rattus norvegicus, UniProt Q63380).
T4 construct: from tissue; host or cells: rat cortical membranes (per the assay title)
T4 sequence (Q63380 1-617): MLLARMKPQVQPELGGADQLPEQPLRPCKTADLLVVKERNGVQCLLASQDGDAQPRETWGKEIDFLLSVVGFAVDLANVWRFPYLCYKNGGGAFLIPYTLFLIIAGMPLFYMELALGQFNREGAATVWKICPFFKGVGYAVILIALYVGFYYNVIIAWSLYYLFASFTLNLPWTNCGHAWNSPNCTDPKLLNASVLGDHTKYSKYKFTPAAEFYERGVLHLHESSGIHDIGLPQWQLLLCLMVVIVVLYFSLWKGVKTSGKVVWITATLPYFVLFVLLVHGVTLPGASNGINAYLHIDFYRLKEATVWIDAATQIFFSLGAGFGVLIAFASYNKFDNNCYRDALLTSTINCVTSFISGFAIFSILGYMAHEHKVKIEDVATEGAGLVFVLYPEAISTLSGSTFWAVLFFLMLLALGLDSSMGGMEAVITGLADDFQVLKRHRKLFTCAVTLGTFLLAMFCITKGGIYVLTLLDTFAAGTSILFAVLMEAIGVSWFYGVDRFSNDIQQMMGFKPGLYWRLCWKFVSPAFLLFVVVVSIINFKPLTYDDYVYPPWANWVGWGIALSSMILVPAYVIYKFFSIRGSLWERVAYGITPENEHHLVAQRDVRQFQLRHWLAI
Briefly: Norepinephrine uptake binding assay: [3H]desipramine binding to rat cortical membranes.

For the next series, the system named is neuronal vacuolization. The note with it: i.p.
[15] abbreviates: 3 mg/kg i.v. (60 sec bolus injection).
[16] abbreviates: 10 mg/kg i.v. (60 sec bolus injection).

T1 sequence (P31652 whole entry): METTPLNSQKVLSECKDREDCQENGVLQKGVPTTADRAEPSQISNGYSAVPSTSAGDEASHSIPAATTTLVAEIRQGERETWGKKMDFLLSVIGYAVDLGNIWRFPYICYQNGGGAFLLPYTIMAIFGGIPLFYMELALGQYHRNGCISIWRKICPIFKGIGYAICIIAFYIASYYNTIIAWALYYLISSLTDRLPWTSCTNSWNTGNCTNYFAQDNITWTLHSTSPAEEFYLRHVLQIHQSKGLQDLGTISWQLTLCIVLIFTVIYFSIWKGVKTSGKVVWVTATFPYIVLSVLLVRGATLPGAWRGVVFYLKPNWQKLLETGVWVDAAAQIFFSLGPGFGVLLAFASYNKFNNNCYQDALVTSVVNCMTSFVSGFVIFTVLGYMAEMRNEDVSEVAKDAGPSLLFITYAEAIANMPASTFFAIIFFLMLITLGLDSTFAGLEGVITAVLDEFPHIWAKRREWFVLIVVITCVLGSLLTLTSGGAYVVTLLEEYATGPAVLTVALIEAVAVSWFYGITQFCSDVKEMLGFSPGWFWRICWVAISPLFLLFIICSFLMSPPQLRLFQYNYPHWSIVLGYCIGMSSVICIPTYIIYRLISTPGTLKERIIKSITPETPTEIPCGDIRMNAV
T3 sequence (H0WCX4 1-619): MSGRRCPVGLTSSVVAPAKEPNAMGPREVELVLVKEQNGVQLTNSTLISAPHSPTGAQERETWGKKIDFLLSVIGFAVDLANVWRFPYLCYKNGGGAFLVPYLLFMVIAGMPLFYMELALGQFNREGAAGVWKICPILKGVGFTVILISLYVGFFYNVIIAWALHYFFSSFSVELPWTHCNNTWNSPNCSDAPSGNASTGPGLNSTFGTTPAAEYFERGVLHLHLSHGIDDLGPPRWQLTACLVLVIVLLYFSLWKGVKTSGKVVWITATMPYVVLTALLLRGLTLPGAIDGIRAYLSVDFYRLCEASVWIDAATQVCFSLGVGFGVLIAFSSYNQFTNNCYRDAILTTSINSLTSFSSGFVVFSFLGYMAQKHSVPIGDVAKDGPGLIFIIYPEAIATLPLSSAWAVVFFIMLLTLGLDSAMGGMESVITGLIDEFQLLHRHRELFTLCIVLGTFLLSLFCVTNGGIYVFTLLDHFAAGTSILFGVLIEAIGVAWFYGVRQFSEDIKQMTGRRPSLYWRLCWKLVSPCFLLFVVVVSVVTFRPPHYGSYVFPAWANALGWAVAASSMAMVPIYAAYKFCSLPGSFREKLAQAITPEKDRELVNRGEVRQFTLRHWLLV

With `CC(N)CC(c1cccc(F)c1)c1cccc(F)c1` (stereo not shown) [Compound 22, 3,3-bis(3-fluorophenyl)-1-methyl-1-propylamine], the “TD50 (inverted grid)” value in the series with motor performance [1] stood at 26.8 mg/kg. Moreover, the ED50 in the series on sound-induced seizures (ip) was found to be 4.9 mg/kg; with sound-induced seizures (oral), 5.1 mg/kg. For the same compound, the half-maximal inhibitory concentration (IC50) turned out to be 3.45 µM in [2] and 0.145 µM with NMDA receptor. The “no significant cardiovascular activity in anesthetized rats at doses up to” value in series [3] is no more than 4.47 mg/kg. In [4], the LD50 was 18.3 mg/kg.
Take `C[C@@H](CN)C(c1cccc(F)c1)c1cccc(F)c1` [Compound 33, 3,3-bis(3-fluorophenyl)-2-methyl-1-propylamine]: the “neuroprotectant activity in a rat model of focal ischemic stroke” value with focal ischemic stroke is recorded as “significant neuroprotectant activity”. Further, the figures for the “Monoamine uptake binding assays: serotonin uptake binding assay, percent block” value at serotonin uptake site (at 0.1 μM) and at serotonin uptake site (at 10 μM) were 10^g14% at and 0.1^h89% at, respectively. Also, the motor toxicity entry in the series with motor performance [5] is “no motor toxicity apparent”. Also, the “analgesic activity, rat 48° C. tail flick test” value in the series on thermal nociception [6] was “no significant analgesic activity”. Moreover, the TD50 in the series “in vivo” worked out at 27.8 mg/kg. Further, the 50% effect level with sound-induced seizures (ip) (ED50) was put at a dose of 4.6 mg/kg. In addition, the half-maximal inhibitory concentration (IC50) in the series with L-type calcium channel is 1600 nM; in series [2], 0.181 µM; in series [11] it was greater than 10000 nM; with NMDA receptor it was 0.06 µM. Further, the behavioral effects result is “excitation, increased reactivity to touch, and hypothermia” in the series on behavior [7] (8 mg/kg i.p.); “convulsions” in the series on behavior [7] (64 mg/kg i.p.); “no behavioral effects” in the series with behavior [7] (2 and 4 mg/kg i.p.); “excitation, Straub tail, tremor, jumping, stereotypies, hypothermia, and mydriasis” in the series with behavior [7] (16 and 32 mg/kg i.p.); “convulsions and death” in the series with behavior [7] (128 and 256 mg/kg i.p.); “licking of the mouth” with behavior [13] (setting [15]). In the series on behavior [13] (setting [16]), the behavioral effects entry is “dilated pupils, whole body tremors, incoordination, licking of the mouth, salivation, and panting”. Moreover, in [3], the “no significant cardiovascular activity in anesthetized rats at doses up to” value is recorded as “up to 3 mg/kg”. The “Central muscarinic cholinergic receptor: percent block of [3H]QNB binding” value was 42% at in series [8] (at 0.1 μM) and 0.199% at in series [8] (at 10 μM). The “analgesic activity, chronic neuropathic pain” value is “significant analgesic activity” in the series with chronic neuropathic pain (i.p., doses of 3-10 mg/kg) and “significant analgesic activity” with chronic neuropathic pain (i.th., doses ranging from 15 to 80 μg). In addition, in series [9], the “anticonvulsant activity against maximal electroshock-induced seizures” value is given as “significant anticonvulsant activity”. The “Monoamine uptake binding assays: dopamine uptake binding assay, percent block” value at dopamine uptake site (at 0.1 μM) is recorded as 23% at; on dopamine uptake site (at 10 μM), 0.1^f86% at. In addition, the “analgesic activity, rat 52° C. hot plate test” value in the series on thermal nociception [10] is reported as “no significant analgesic activity”. Besides, in series [12] (0.3 mg/kg i.v. (60 sec bolus injection)), the cardiovascular activity result was “no significant cardiovascular activity”. For the same compound, the mean arterial pressure entry is “transient increases in mean arterial pressure” in series [12] (1 mg/kg i.v. (60 sec bolus injection)); “larger magnitude and longer duration effects” in [12] (setting [15]); “larger magnitude and longer duration effects” in series [12] (setting [16]). For the same compound, the heart rate result in [12] (setting [16]) is on record as “a transient increase in heart rate”. For the same compound, the “changes in the ECG” value in [12] (doses up to 10 mg/kg i.v. (60 sec bolus injection)) was “no significant drug-induced changes in the ECG”. Besides, the “Monoamine uptake binding assays: norepinephrine uptake binding assay, percent block” value in [14] (at 0.1 μM) was 10^f2% at; in series [14] (at 10 μM) it was 0.1^g54% at. Moreover, the “dose without neuronal vacuolization” value with neuronal vacuolization was determined as 30 mg/kg.
